Source: patent US7378387B2, “Method of suppressing immune response by reducing intracellular content of glutathione in macrophages and monocytes” (Ajinomoto Co., Inc., priority 1997, dated 2008)

Legend:
[1] = test system: dextran sulfate-induced inflammatory bowel disease; assay: Dextran sulfate-induced inflammatory bowel disease in γc knock out mice (Example 14); assay type: in vivo
Experimental: To 3-week-old γc knock out mice with +/− genotypes were administered 20 μg[…] of (NAC-OMe)2 three times a week for 2 weeks. On day 16, the free drinking of 1% dextran sulfate water was started. […] The γc knock out mice and their wild-type male mice (+/Y- and −/Y) and female mice (+/+, +/− and −/−) were caused to freely drink water containing 1% dextran sulfate as a inflammatory bowel disease model.

[2] = test system: reductive glutathione in MΦ; assay: GSH content in MΦ by ACAS after NAC drinking and/or IL-2 administration (Example 8); assay type: in vivo, DBA/2 female mice; settings: NAC 1 mg/ml in city water; IL-2 intraperitoneally twice a day every two days for two weeks; day 14
Experimental: Three-hundred microliters of a cell suspension adjusted concentration of 3×10^5 cells/ml in an RPMI 1640 medium (phenol red-free) were charged into a chambered coverglass (#136439, supplied by Nunc), and incubated at 37° C. for 2 hours using a CO2 incubator. The culture solution was washed with the medium, and 300 μl of monochlorobimane (supplied by Molecular Plobe) adjusted to 10 μM in the same medium were added thereto. The mixture was charged into a CO2 incubator of 37° C., and the reaction was conducted for 30 minutes. The fluorescent intensity was measured with ACAS. In ACAS, a UV laser was used.
Two groups, namely, a group of 8-week-old DBA/2 female mice which were caused to freely drink city water as in Example 6, and a group of the same female mice which were caused to freely drink city water containing 1 mg/ml of NAC, were prepared. Further, the two groups of the-above-mentioned mice to which human recombinant IL-2 in an amount of 2 pg/0.5 ml/h was intraperitoneally administered twice a day, every two days for two weeks were provided.

[3] = test system: reductive glutathione in peritoneal macrophages; assay: Reductive glutathione content of peritoneal macrophages by ACAS, advanced tumor-bearing mice (Example 4); assay type: in vivo, CDF1 mice; settings: oral 1 mg/0.5 ml/h every day for 10 days from day 21 after COLON 26 implantation; control physiological saline
Experimental: Oxidative and reductive macrophages collected from peritoneal cavities of advanced tumor-bearing cachectic mice (COLON 26) and normal mice were determined. The COLON 26 transplantable tumor well known to induce a cancer cachexia was implanted subcutaneously in the back portion of CDF1 mice at a density of 5×10^5 cells/mouse. On day 21 after the tumor implantation, the cachectic condition was provided. Five milliliters of a physiological saline solution were intraperitoneally injected into the mice which became resistant to a therapeutic treatment. Peritoneal macrophages were collected, and suspended in a phenol red-free RPMI 1640 medium containing 10% fetal calf serum to a density of 3×10^5 cells/ml. One hundred microliters of the suspension were charged in a Lab-Tek Chamber Slide (#136439, supplied by Nunc), and incubated in 5% CO2 at 37° C. for 3 hours. After the nonadherent cells were removed, 200 μl of the above-mentioned medium free from serum were added thereto, and monochlorobimane (MCB) was added thereto in an amount of 10 μM. The reaction was conducted for 30 minutes, and the image analysis was conducted on the basis of the UV absorption using an ACAS device (supplied by Meridien).
The COLON 26 transplantable tumor was implanted subcutaneously in the back portion of CDF1 mice at a density of 5×10^5 cells/mouse. […]

IL-6 [4] = assay: IL-6 in culture supernatant of macrophages of NOD mice (Example 22); assay type: in vivo; settings: oral 1 mg/0.5 ml/h/day on alternate days, five times, age 4 weeks; control group 3800 pg/ml
Experimental: (§1) The amount of IL-6 was determined using IL-6 dependent mouse hybridoma MH60 cells (J. Eur. Immunol., vol. 18, p. 951, 1988). One hundred microliters of the culture supernatant were added to 100 μl of the MH60 cell suspension adjusted to 1×10^5 cells/ml in a 10% FCS-containing RPMI medium, and the mixed solution was incubated at 37° C. for 2 days in a CO2 incubator. Subsequently, 10 μl of MTT (supplied by Sigma Co.) solution adjusted to a concentration of 5 mg/ml in the same medium were added thereto, and the reaction was conducted at 37° C. for 5 hours. After the completion of the reaction, the centrifugation was conducted. The supernatant (160 μl) was removed, and 100 μl of a mixture of hydrochloric acid and propanol were added to the residue. The suspension was conducted using a pipetman to dissolve the cells. Immediately after the dissolution, an absorbance of 570 nm was measured with an immunometer (supplied by Bio-Rad).
Through a probe, glutathione ethyl ester was orally given at 1 mg/0.5 ml/h/day to the NOD mice of age 4 weeks on alternate days, in total five times. By the same method as in Example 3, intraperitoneal cells were collected from the mice to sample intraperitoneal macrophages, which were then suspended and adjusted in a phenol red-free RPMI 1640 culture medium supplemented with 10% fetal calf serum to 3×10^6 cells/ml. […]

[5] = test system: COLON 26 transplantable tumor; assay: Survival of COLON 26 advanced tumor-bearing cachectic mice (Example 4); assay type: in vivo, CDF1 mice; settings: oral 1 mg/0.5 ml/h for 10 days, COLON 26 mice; control mice 42
IL-6 [6] = assay: IL-6 in macrophage culture supernatant, advanced tumor-bearing mice (Example 4); assay type: in vivo, CDF1 mice; settings: oral 1 mg/0.5 ml/h for 10 days, COLON 26 mice; control mice 5,200 pg/ml
Experimental: A stimulator was added to 1×10^6 MΦ, and the incubation was conducted at 37° C. for 2 days in a CO2 incubator. After centrifugation, the culture supernatant was collected.
as §1
The COLON 26 transplantable tumor was implanted subcutaneously in the back portion of CDF1 mice at a density of 5×10^5 cells/mouse. […] Glutathione ethyl ester was orally administered to the mice every day in a dosage of 1 mg/0.5 ml/h. This oral administration was continued for 10 days. […]

SMILES: COC(=O)[C@H](CSSC[C@H](NC(C)=O)C(=O)OC)NC(C)=O [(NAC-OMe)2, N,N′-diacetylcystine dimethyl ester]
- occurrence rate of the inflammatory bowel disease ([1]; +/+ mice, non-administration 80%): 60%
- occurrence rate of the inflammatory bowel disease, Day 30 ([1]; +/− mice, 20 μg/h three times a week for 2 weeks, 1% dextran sulfate water from day 16, non-administration 100%): 16.6%
- survival rate ([1]; +/− mice, 20 μg/h three times a week for 2 weeks, 1% dextran sulfate water, non-administration 57%): 100%

SMILES: CC(=O)N[C@@H](CS)C(=O)O [NAC, N-acetylcysteine, reference compound]
- content of reductive glutathione in MΦ (ACAS) [2]: markedly increased

SMILES: CCOC(=O)CNC(=O)[C@H](CS)NC(=O)CC[C@H](N)C(=O)O [GSH-OEt, glutathione monoethyl ester]
- amount of oxidative macrophage (reductive glutathione content decreased) in comparison with control mice [3]: relatively decreased
- IL-6 in the culture supernatant of the macrophages (IL-6 [4]): 460 pg/mL
- average number of survival days [5]: 148 days
- amount of IL-6 in macrophage culture supernatant (IL-6 [6]): 642 pg/mL
